Patent US9814739B2, “2′-ethynyl nucleoside derivatives for treatment of viral infections” (priority 2012, dated 2017)
pEC50, pIC50: −log10 of the molar value. Read-outs that look alike come from different tables or passages of the source.

How the values were obtained:
[1] = system: Replicon cells, expressing the GT1b HCV luciferase replicon
[2] = in vitro; settings: HCV GT1b CC50 (uM)
[3] = 4 day CCK-8 cytotoxicity assay using THP-1 cells; type: cell-based; settings: human, read-out: Dengue CC50 (THP-1)
Protocol: 3) Protocols for Automated 4 Days CCK8 (Dojindo) Cytotoxicity Assay in HepG2 and THP-1 Cells • 1. 25 μL of HepG2 suspension containing 1.6×10^4 cells/ml (400 cells/well) or 25 μL of THP-1 suspension containing 8×10^4 cells/ml (2000 cells/well) was dispensed into a clear 384-well plate by GNF dispenser 2B vertical-head. • 2. The plate was pre-incubated for 24 h in the GNF incubator (humidified, 37° C., 5% CO2). • 3. Serial-diluted compound were directly transferred into the culture media in the plate (200× dilution). • 4. Plates were incubated for 96 hours in the GNF incubator. • 5. CCK-8 was thawed on the bench-top, and was pre-diluted with media (2.5× dilutions). • 6. 35 μL of 2.5× diluted CCK8 was added to each well of the plate by GNF dispenser 1C angled-head. • 7. The plates were incubated for 3 hours in the incubator. • 8. The absorbance at 450 nm was measured by Envision. Dengue Assay on Cryopreserved PBMC Cells
THP-1 cells grown in suspension were counted and diluted to 8×10^4 cells/ml in RPMI-1640 media supplemented with 10% fetal bovine serum and 1% penicillin/streptomycin. 25 ul of the THP-1 containing media consisting of 2000 cells were dispensed in 384-well tissue culture plate and pre-incubated at room temperature for 30 minutes, followed by 37° C., 5% CO2 overnight in the humidified incubator. On the next day, serial-diluted compound plates were prepared and 125 nl of compounds at various concentrations were then dispensed into the tissue culture well (200× dilution). The plates were then transferred to 37° C., 5% CO2 humidified incubator for additional 96 hours. Cytotoxicity was measured by CCK-8 assay. Briefly, CCK-8 was thawed on bench top and diluted 2.5× with the growth media. 35 ul of the pre-diluted CCK-8 was then introduced into each well and the plates were then further incubated in 37° C., 5% CO2 humidified incubator for 3 hours. The absorbance was read by Envision at 450 nm. Dose response curves were plotted from the mean absorbance (n=2) versus the log of the concentration of test compounds. The EC50 is calculated by nonlinear regression analysis. A positive control (puromycin) was used to ensure the quality of the data.

[4] = system: Dengue virus; experiment: Dengue assay on cryopreserved PBMC cells (plaque reduction readout on BHK cells); type: cell-based; settings: human PBMC cells
Protocol: Cryopreserved human PBMC cells were purchased from approved vendors. It was then thawed according to manufacturer's instructions and suspended in RPMI medium supplemented with 1% penicillin/streptomycin solution and 10% Fetal Calf serum. The cells were then counted and viability checked (viability should be at least 70%). After centrifuging and removing the media, the cells were diluted to 1×10^7 cells/mL in RPMI medium supplemented with 1% penicillin/streptomycin. 50 μl of the cells were then dispensed into 96-well tissue culture plate constituting 5×10^5 cells/well. Next, virus with humanized 4G2 mixture was prepared for infection. Briefly, virus (2×10^7 pfu/ml) was mixed with humanized 4G2 antibody with the final antibody concentration of 0.38 μg/ml and incubated for 30 minutes at 4° C. to assist virus/antibody complex formation. The virus-antibody complex was then added to the PBMC at multiplicity of infection (M.O.I) of 0.5. The resulting media was then and further incubated the plates at 37° C. in the humidified incubator for infection to take place. Serial diluted compounds were then added and finally media was added such that the final media volume was 200 μl with 2% Fetal Calf Serum. The plates were then incubated at 37° C., 5% CO2 for another 48 hours. The extent of the infection and compound inhibition was measured by plaque reduction assay using BHK cells. Briefly, BHK cells grown in 24-well tissue culture were subjected to supernatants derived from infection containing serial diluted compounds. After additional 4 days, the monolayer of BHK cells were fixed, stained with crystal violet stain and plaques counted. Dose response curves were plotted from the mean absorbance (n=3) versus the log of the concentration of test compounds. The EC50 is calculated by nonlinear regression analysis. A positive control (7-deaza-2′-C-acetylene-adenosine) was used to ensure the quality of the data.

[5] = system: GT1b HCV luciferase replicon; experiment: HCV replicon antiviral EC50 assay; type: cell-based, Hepatitis C virus
[6] = target: T1, Dengue polymerase (Dengue virus type 2, UniProt P29990); experiment: biochemical; settings: De novo
[7] = target: T1, Dengue polymerase; experiment: biochemical; settings: Elongation
[8] = target: HCV polymerase (Hepatitis C virus genotype 1b, UniProt Q9WMX2); experiment: biochemical
Chain of HCV polymerase (Q9WMX2 2420-3010 limits assumed): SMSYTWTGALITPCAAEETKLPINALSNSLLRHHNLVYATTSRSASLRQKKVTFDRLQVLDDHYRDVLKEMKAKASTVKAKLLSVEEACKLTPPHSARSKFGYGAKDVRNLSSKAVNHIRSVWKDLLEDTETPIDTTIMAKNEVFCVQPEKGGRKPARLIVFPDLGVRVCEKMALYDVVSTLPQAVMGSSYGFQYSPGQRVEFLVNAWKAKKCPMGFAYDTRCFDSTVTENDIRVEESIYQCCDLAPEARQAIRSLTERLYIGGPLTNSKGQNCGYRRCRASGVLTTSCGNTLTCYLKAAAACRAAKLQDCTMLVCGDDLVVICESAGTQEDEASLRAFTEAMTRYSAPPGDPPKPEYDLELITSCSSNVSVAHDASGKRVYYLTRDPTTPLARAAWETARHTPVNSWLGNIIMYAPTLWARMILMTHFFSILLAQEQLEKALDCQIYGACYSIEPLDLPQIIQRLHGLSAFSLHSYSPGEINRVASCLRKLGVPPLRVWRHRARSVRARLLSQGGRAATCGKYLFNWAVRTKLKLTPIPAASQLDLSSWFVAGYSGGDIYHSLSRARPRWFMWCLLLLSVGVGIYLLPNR

T1 sequence (P29990 2492-3391 limits assumed): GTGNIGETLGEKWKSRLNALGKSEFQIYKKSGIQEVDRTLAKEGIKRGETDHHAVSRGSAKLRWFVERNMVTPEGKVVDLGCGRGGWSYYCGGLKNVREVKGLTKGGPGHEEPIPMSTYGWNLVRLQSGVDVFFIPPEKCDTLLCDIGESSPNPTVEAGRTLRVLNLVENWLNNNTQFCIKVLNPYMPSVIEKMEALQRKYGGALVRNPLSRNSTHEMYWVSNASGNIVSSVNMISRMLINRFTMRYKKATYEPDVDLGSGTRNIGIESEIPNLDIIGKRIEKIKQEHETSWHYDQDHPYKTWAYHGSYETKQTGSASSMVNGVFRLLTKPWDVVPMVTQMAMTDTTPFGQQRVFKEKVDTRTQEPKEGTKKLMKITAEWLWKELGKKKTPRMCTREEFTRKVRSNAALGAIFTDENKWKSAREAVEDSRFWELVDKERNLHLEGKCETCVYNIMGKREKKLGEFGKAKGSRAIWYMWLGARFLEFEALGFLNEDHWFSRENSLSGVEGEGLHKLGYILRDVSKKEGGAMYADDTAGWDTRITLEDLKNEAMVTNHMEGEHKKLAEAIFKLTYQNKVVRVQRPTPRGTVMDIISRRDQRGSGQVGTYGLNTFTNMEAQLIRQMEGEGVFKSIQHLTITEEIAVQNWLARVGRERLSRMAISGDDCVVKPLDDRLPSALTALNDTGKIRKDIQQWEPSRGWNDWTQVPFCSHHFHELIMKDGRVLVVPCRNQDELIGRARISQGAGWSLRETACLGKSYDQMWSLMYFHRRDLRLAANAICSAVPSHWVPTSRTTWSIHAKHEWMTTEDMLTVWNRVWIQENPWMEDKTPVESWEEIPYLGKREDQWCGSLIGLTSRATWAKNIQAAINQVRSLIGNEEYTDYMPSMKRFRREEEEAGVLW

pIC50 [6]	pIC50 [7]	pIC50 [8]	Compound	CC50 [1]	CC50 [2]	CC50 at 96 h [3]	pEC50 ([4]; Dengue virus, PBMC, 48 h)	pEC50 ([4]; 48 hours)	EC50 ([5]; Hepatitis C virus, GT1B, 72 h, read-out: HCV GT1b EC50 (uM))	pEC50 ([5]; read-out: HCV GT1b EC50)
			C#C[C@@]1(O)[C@H](O)[C@@H](CO[P@@](=O)(N[C@@H](C)C(=O)OC(C)C)Oc2ccccc2)O[C@H]1n1ccc(=O)[nH]c1=O (single isomer, unassigned) [Example 1]	> 20 µM	> 25 µM	> 50 µM	6.40	6.64	0.066 µM	7.01
5.47	5.68		CC#C[C@@]1(O)[C@H](O)[C@@H](COP(=O)(O)OP(=O)(O)OP(=O)(O)O)O[C@H]1n1ccc(=O)[nH]c1=O [Example 1.9, ((2R,3R,4R,5R)-5-(2,4-dioxo-3,4-dihydropyrimidin-1(2H)-yl)-3,4-dihydroxy-4-(prop-1-yn-1-yl)tetrahydrofuran-2-yl)methyl tetrahydrogen triphosphate]							
5.54	5.92	5.08	C#C[C@@]1(O)[C@H](O)[C@@H](COP(=O)(O)OP(=O)(O)OP(=O)(O)O)O[C@H]1n1ccc(=O)[nH]c1=O [Example 1.8, ((2R,3R,4R,5R)-5-(2,4-dioxo-3,4-dihydropyrimidin-1(2H)-yl)-4-ethynyl-3,4-dihydroxytetrahydrofuran-2-yl)methyl tetrahydrogen triphosphate]							
